Data taken from US4797400A, “Piperazine compounds and anti-ulcer composition containing the same” (Kanebo, Ltd., priority 1986, dated 1989).
Where a name gives a salt, the structure may show the parent alone.

Tests used:
Acute toxicity = conditions: mouse, in vivo, po; male ddY mice; death observed for 7 days; Weil's method
Protocol: To male ddY mice (weighing 18-22 g, 4 weeks age, […] mice per group) fasted overnight was orally administered the test compound in the form of a solution in distilled water or a suspension in 1% aqueous gum arabic. […] From the number of dead mice, LD50 was determined in the same manner as Weil's method.

[1] = system: water-immersion stress-induced gastric ulcer; test: Inhibitory effect on water-immersion stress-induced gastric ulcer; format: in vivo; conditions: Rattus norvegicus, po; male SD rats; water bath at 23° C., 17 hours
Protocol: Inhibitory effect on water-immersion stress-induced gastric ulcer: Male SD rats (weighing 190-230 g, 8 weeks age, 16 rats per group) were fasted for 24 hours, and to the rats was orally administered the test compound in the form of a solution in distilled water or a suspension in 1% aqueous gum arabic. After 15 minutes, the rats were immersed vertically to the height of the xiphoid of the rats in water bath at 23° C. within a stress cage in the same manner as described by Takagi et al. [cf. Japanese Journal of Pharmacology, 18, 9 (1968)]. After 17 hours, the rats were sacrificed under ether anesthesia and the stomach was removed. The stomach was treated with formalin and the ulcer index as well as ED50 were determined in the same manner as described in Experiment 1.

[2] = system: indomethacin-induced gastric ulcer; test: Inhibitory effect on indomethacin-induced gastric ulcer; format: in vivo; conditions: Rattus norvegicus, po; male SD rats; indomethacin 30 mg/kg s.c.; ulcer index after 5 hours
Protocol: Inhibitory effect on indomethacin-induced gastric ulcer: It was done in the same manner as described by Okabe et al. [cf. Digestive Diseases and Science, 28, 1034 (1983)]. That is, male SD rats (weighing 180-220 g, 8 weeks age, 16 rats per group) were fasted for 24 hours, and to the rats was orally administered the test compound in the form of a solution in distilled water or a suspension in 1% aqueous gum arabic. After 15 minutes, to the rats was subcutaneously administered indomethacin (30 mg/kg) in the form of a solution in 3% aqueous sodium hydrogen carbonate solution. After 5 hours, the rats were sacrificed under ether anesthesia and the stomach was removed. The stomach was treated with formalin and the ulcer index as well as ED50 were determined in the same manner as described in Experiment 1.

[3] = system: ethanol-induced gastric ulcer; test: Inhibitory effect on ethanol-induced gastric ulcer; format: in vivo, male Sprague-Dawley (SD) rats; conditions: Rattus norvegicus, po, 1 h; p.o.; male SD rats; ethanol (99.5%, 1 ml) orally 30 minutes after test compound; ulcer index after one hour
Protocol: The compounds of this invention have potent activity for promoting the action of the defensive factor. The activity can be evaluated by the defensive action against ulcer induced by ethanol (e.g. inhibitory effect on ethanol-induced gastric ulcer) [cf. Hara, Nobuyuki et al., Pharmacometrics, 29, 557 (1985)]. […] Inhibitory effect on ethanol-induced gastric ulcer: Male Sprague-Dawley (SD) rats (weighing 180-220 g, 8 weeks age, 16 rats per group) were fasted for 24 hours, and to the rats was orally administered the test compound in the form of a solution in distilled water or a suspension in 1% aqueous gum arabic. After 30 minutes, ethanol (99.5%, 1 ml) was orally administered to the rats in the same manner as described by Robert et al. [cf. Gastroenterology, 77, 433 (1979)]. One hour after the administration of ethanol, the rats were sacrificed under ether anesthesia, and the stomach was removed. Into the stomach was poured 1% formalin (12 ml), and then the stomach was immersed in 1% formalin for 15 minutes. The stomach was cut along the greater curvature, and the length (mm) of each ulcer occured on the fundic mucosa was measured with a dissecting microscope. Sum of the length of ulcers in each rat was used as the ulcer index in each rat. In control rats to which no test compound was administered, the ulcer index was determined likewise, and the mean value (mean ulcer index) was calculated. […] A dose-response curve was drawn based on the ratio thus obtained and the dose of test compounds, and therefrom, the 50% effective dose (ED50) was determined.

Structure (SMILES) | LD50 at 168 h (Acute toxicity) | ED50 [1] | ED50 [2] | ED50 [3]
COc1ccc(OC(=O)CN2CCN(Cc3ccc(OC)c(OC)c3OC)CC2)cc1.Cl.Cl [Compound 1, 1-[(4-Methoxyphenoxy)carbonylmethyl]-4-(2,3,4-trimethoxybenzyl)piperazine dihydrochloride] | 4200 mg/kg | 88 mg/kg | 10 mg/kg | 27 mg/kg
NC[C@H]1CC[C@H](C(=O)Oc2ccc(CCC(=O)O)cc2)CC1 [Reference compound, Cetraxate hydrochloride, reference compound] | > 8000 mg/kg | > 1000 mg/kg | 361 mg/kg | 112 mg/kg
COc1ccc(OC(=O)CN2CCN(Cc3cc(OC)c(OC)c(OC)c3)CC2)cc1.O.O=C(O)/C=C/C(=O)O.O=C(O)/C=C/C(=O)O [Compound 2, 1-[(4-Methoxyphenoxy)carbonylmethyl]-4-(3,4,5-trimethoxybenzyl)piperazine difumarate monohydrate] | 4800 mg/kg | 123 mg/kg | 11 mg/kg | 30 mg/kg
